ChEMBL document CHEMBL5260858, “Targeting mycobacterial membranes and membrane proteins: Progress and limitations” (Bioorg Med Chem, 2023)
Converted amounts (≈) assume the structure as drawn.

Tested on: Mycobacterium tuberculosis
Assay: Antitubercular activity against Mycobacterium africanum ATCC 25420 assessed as bacterial growth inhibition by agar dilution method
Format: functional
Settings: variant africanum ATCC 25420

SMILES: O=C1CCc2c(cccc2OC[C@]2(O)CCN(c3c(F)cc(Cl)cc3F)C[C@H]2O)N1
- MIC: 2 ng/mL (≈ 4.56 nM)
